Assay results published in BigSolDB 2.1.

CCCSc1nc(N[C@@H]2C[C@H]2c2ccc(F)c(F)c2)c2nnn([C@@H]3C[C@H](OCCO)[C@@H](O)[C@H]3O)c2n1
solubility (mole fraction)
Conditions	273.15 K	278.15 K	283.15 K	288.15 K	293.15 K	298.15 K	303.15 K	308.15 K	313.15 K
in ethyl acetate	0.00246	0.00306	0.00399	0.00496	0.00602	0.00717	0.00899	0.0112	0.0139
in isopropanol	0.00074	0.00102	0.00138	0.00213	0.00304	0.00415	0.00571	0.00785	0.0112
in isopropyl acetate	0.0011	0.00136	0.00171	0.00205	0.00243	0.00295	0.00355	0.0045	0.00545
in n-butanol	0.00106	0.00155	0.0021	0.00278	0.00371	0.00476	0.00633	0.00826	0.0114
in n-propanol	0.00212	0.00288	0.00387	0.00513	0.00683	0.00958	0.0128	0.0165	0.0222
in sec-butanol	0.000855	0.00116	0.00181	0.00249	0.00359	0.00494	0.00693	0.00992	0.0137
